Reference: PubChem BioAssay AID2060508 (Molecular Pharmacology Branch, DTP, NCI, 2025)

Tested on: 454973-116-R2-J3-PDC spheroids, viability, % test/control
Assay: Anticancer human tumor 454973-116-R2-J3-PDC patient-derived pancreatic carcinoma cell line growth inhibition [GQUAD]
Conditions: spheroids with HUVEC and MSC; for IC50: curve of first compound; for viability, T/C: stronger effect = lower value
Outline: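 Tumor cells were grown as complex spheroids with HUVEC endothelial cells and mesenchymal stem cells as stroma. G-quadruplex stabilizers were combined with targeted agents over half-log dilutions from near the clinical Cmax, or from 10 microM.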

[1] = second compound 0.0316 µM, first compound 0.0316 µM
[2] = second compound 0.0316 µM, first compound 0.1 µM
[3] = second compound 0.0316 µM, first compound 0.316 µM
[4] = second compound 0.0316 µM, first compound 1 µM
[5] = second compound 0.0316 µM, first compound 3.16 µM
[6] = second compound 0.0316 µM, first compound 10 µM
[7] = second compound 0.1 µM, first compound 0.0316 µM
[8] = second compound 0.1 µM, first compound 0.1 µM
[9] = second compound 0.1 µM, first compound 0.316 µM
[10] = second compound 0.1 µM, first compound 1 µM
[11] = second compound 0.1 µM, first compound 3.16 µM
[12] = second compound 0.1 µM, first compound 10 µM
[13] = second compound 0.316 µM, first compound 0.0316 µM
[14] = second compound 0.316 µM, first compound 0.1 µM
[15] = second compound 0.316 µM, first compound 0.316 µM
[16] = second compound 0.316 µM, first compound 1 µM
[17] = second compound 0.316 µM, first compound 3.16 µM
[18] = second compound 0.316 µM, first compound 10 µM
[19] = second compound 1 µM, first compound 0.0316 µM
[20] = second compound 1 µM, first compound 0.1 µM
[21] = second compound 1 µM, first compound 0.316 µM
[22] = second compound 1 µM, first compound 1 µM
[23] = second compound 1 µM, first compound 3.16 µM
[24] = second compound 1 µM, first compound 10 µM
[25] = second compound 3.16 µM, first compound 0.0316 µM
[26] = second compound 3.16 µM, first compound 0.1 µM
[27] = second compound 3.16 µM, first compound 0.316 µM
[28] = second compound 3.16 µM, first compound 1 µM
[29] = second compound 3.16 µM, first compound 3.16 µM
[30] = second compound 3.16 µM, first compound 10 µM
[31] = second compound 10 µM, first compound 0.0316 µM
[32] = second compound 10 µM, first compound 0.1 µM
[33] = second compound 10 µM, first compound 0.316 µM
[34] = second compound 10 µM, first compound 1 µM
[35] = second compound 10 µM, first compound 3.16 µM
[36] = second compound 10 µM, first compound 10 µM
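Further: spheroids exposed to compounds for seven days.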
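Wherever viability, T/C is given: 100% = DMSO vehicle control viability.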

CC(C)(O)C1CCC(Nc2ccc3ncc(-c4cccc(C(F)(F)F)c4)n3n2)CC1 (stereo unspecified) + CN(C)c1ccc(Nc2c3ccc(NC(=O)CCN4CCCC4)cc3nc3cc(NC(=O)CCN4CCCC4)ccc23)cc1
IC50 (second compound 0.0316 µM): 1.78 µM | IC50 (second compound 0.1 µM): 1.73 µM | IC50 (second compound 0.316 µM): 1.54 µM | IC50 (second compound 1 µM): 1.25 µM | IC50 (second compound 3.16 µM): 0.739 µM | IC50 (second compound 10 µM): 0.808 µM | viability, T/C [1]: 108% | viability, T/C [2]: 101% | viability, T/C [3]: 94.8% | viability, T/C [4]: 77% | viability, T/C [5]: 17.3% | viability, T/C [6]: 29.5% | viability, T/C [7]: 93.8% | viability, T/C [8]: 90.3% | viability, T/C [9]: 102% | viability, T/C [10]: 72.6% | viability, T/C [11]: 15.6% | viability, T/C [12]: 34.5% | viability, T/C [13]: 95.3% | viability, T/C [14]: 90.3% | viability, T/C [15]: 83.9% | viability, T/C [16]: 62.9% | viability, T/C [17]: 23.3% | viability, T/C [18]: 33.2% | viability, T/C [19]: 87.9% | viability, T/C [20]: 92% | viability, T/C [21]: 84.5% | viability, T/C [22]: 55.8% | viability, T/C [23]: 22.6% | viability, T/C [24]: 30.5% | viability, T/C [25]: 85.8% | viability, T/C [26]: 82.7% | viability, T/C [27]: 80.2% | viability, T/C [28]: 39.4% | viability, T/C [29]: 22.6% | viability, T/C [30]: 31.6% | viability, T/C [31]: 62.3% | viability, T/C [32]: 64.8% | viability, T/C [33]: 55% | viability, T/C [34]: 48.1% | viability, T/C [35]: 12.1% | viability, T/C [36]: 10.4%

CCCS(=O)(=O)Nc1ccc(F)c(C(=O)c2c[nH]c3ncc(-c4ccc(Cl)cc4)cc23)c1F + Cc1cnc(CNC(=O)c2c(=O)c3ccc(N4CCCN(C)CC4)nc3n3c2sc2ccccc23)cn1
IC50 (second compound 0.0316 µM): 6.44 µM | IC50 (second compound 0.1 µM): 5.99 µM | IC50 (second compound 0.316 µM): 5.08 µM | IC50 (second compound 1 µM): 4.25 µM | IC50 (second compound 3.16 µM): 5.13 µM | IC50 (second compound 10 µM): < 0.0316 µM | viability, T/C [1]: 94.2% | viability, T/C [2]: 105% | viability, T/C [3]: 117% | viability, T/C [4]: 106% | viability, T/C [5]: 117% | viability, T/C [6]: 14.1% | viability, T/C [7]: 77.4% | viability, T/C [8]: 88% | viability, T/C [9]: 99% | viability, T/C [10]: 94.6% | viability, T/C [11]: 95.2% | viability, T/C [12]: 17.3% | viability, T/C [13]: 70.7% | viability, T/C [14]: 73.4% | viability, T/C [15]: 79.5% | viability, T/C [16]: 96% | viability, T/C [17]: 70.9% | viability, T/C [18]: 20.2% | viability, T/C [19]: 65.9% | viability, T/C [20]: 71.9% | viability, T/C [21]: 80.2% | viability, T/C [22]: 66.4% | viability, T/C [23]: 60.2% | viability, T/C [24]: 21.9% | viability, T/C [25]: 55.1% | viability, T/C [26]: 62.2% | viability, T/C [27]: 72.3% | viability, T/C [28]: 67.9% | viability, T/C [29]: 68.3% | viability, T/C [30]: 29.2% | viability, T/C [31]: 0.45% | viability, T/C [32]: 18.1% | viability, T/C [33]: 28.6% | viability, T/C [34]: 35.6% | viability, T/C [35]: 0.54% | viability, T/C [36]: 0.2%

C=CC(=O)N1CCN(c2nc(=O)n(-c3c(C)ccnc3C(C)C)c3nc(-c4c(O)cccc4F)c(F)cc23)C(C)C1 (stereo unspecified) + Cc1cnc(CNC(=O)c2c(=O)c3ccc(N4CCCN(C)CC4)nc3n3c2sc2ccccc23)cn1
IC50 (second compound 0.0316 µM): > 10 µM | IC50 (second compound 0.1 µM): > 10 µM | IC50 (second compound 0.316 µM): > 10 µM | IC50 (second compound 1 µM): > 10 µM | IC50 (second compound 3.16 µM): > 10 µM | IC50 (second compound 10 µM): < 0.0316 µM | viability, T/C [1]: 100% | viability, T/C [2]: 94.2% | viability, T/C [3]: 105% | viability, T/C [4]: 116% | viability, T/C [5]: 118% | viability, T/C [6]: 118% | viability, T/C [7]: 78.1% | viability, T/C [8]: 80.1% | viability, T/C [9]: 87.6% | viability, T/C [10]: 96.9% | viability, T/C [11]: 104% | viability, T/C [12]: 97.1% | viability, T/C [13]: 79.2% | viability, T/C [14]: 79.6% | viability, T/C [15]: 71.1% | viability, T/C [16]: 78.5% | viability, T/C [17]: 85.8% | viability, T/C [18]: 76.7% | viability, T/C [19]: 73.9% | viability, T/C [20]: 72.4% | viability, T/C [21]: 75.2% | viability, T/C [22]: 81.1% | viability, T/C [23]: 90.8% | viability, T/C [24]: 73.4% | viability, T/C [25]: 59.2% | viability, T/C [26]: 64.3% | viability, T/C [27]: 78.5% | viability, T/C [28]: 74.4% | viability, T/C [29]: 86.6% | viability, T/C [30]: 76.7% | viability, T/C [31]: 0.33% | viability, T/C [32]: 19.3% | viability, T/C [33]: 58.5% | viability, T/C [34]: 70.6% | viability, T/C [35]: 0.37% | viability, T/C [36]: 1.42%
